One data set has as its target hCA XII (Homo sapiens, UniProt O43570). Description: Stopped flow CO2 hydrase assay, hCA XII. The note with it: for Selectivity index I/XII: inhibition of hCA XII over hCA I; for Selectivity index I/XII / Selectivity index II/XII: calculated from Ki; for Selectivity index II/XII: inhibition of hCA XII over hCA II.
In the next data set the target is hCA II (Homo sapiens, UniProt P00918). Description: Stopped flow CO2 hydrase assay, hCA II.
The next data set addresses hCA I (Homo sapiens, UniProt P00915). Description: Stopped flow CO2 hydrase assay, hCA I.
The next data set has as its target hCA IX (Homo sapiens, UniProt Q16790). Description: Stopped flow CO2 hydrase assay, hCA IX. The conditions noted are these: for Selectivity index I/IX: inhibition of hCA IX over hCA I; for Selectivity index I/IX / Selectivity index II/IX: calculated from Ki; for Selectivity index II/IX: inhibition of hCA IX over hCA II.
A further data set deals with CA IX. The note with it: cited from earlier work.

The structures appear in SMILES notation.

Sequence of hCA XII (O43570 25-354): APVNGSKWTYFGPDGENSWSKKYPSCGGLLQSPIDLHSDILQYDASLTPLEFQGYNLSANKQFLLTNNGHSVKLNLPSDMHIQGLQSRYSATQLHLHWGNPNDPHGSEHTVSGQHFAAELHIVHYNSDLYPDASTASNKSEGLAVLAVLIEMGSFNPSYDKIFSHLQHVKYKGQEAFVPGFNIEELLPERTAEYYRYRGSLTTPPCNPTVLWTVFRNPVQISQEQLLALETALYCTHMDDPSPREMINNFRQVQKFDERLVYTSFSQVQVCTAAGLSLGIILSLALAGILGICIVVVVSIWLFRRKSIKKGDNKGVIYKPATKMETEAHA
Sequence of hCA I (P00915 whole entry): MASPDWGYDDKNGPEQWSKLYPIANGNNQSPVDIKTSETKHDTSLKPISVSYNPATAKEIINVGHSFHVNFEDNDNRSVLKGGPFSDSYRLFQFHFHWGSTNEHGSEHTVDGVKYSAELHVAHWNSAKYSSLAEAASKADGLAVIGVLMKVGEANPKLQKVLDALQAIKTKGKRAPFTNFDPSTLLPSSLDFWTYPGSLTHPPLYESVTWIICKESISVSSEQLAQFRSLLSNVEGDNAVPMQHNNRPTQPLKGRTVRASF
Experimental for hCA II: (§1) The uncatalyzed rates were determined in the same manner and subtracted from the total observed rates. Stock solutions of inhibitor (0.1 mM) were prepared in distilled-deionized water and dilutions up to 0.01 nM were done thereafter with the assay buffer. Inhibitor and enzyme solutions were preincubated together for 15 min at room temperature prior to assay, in order to allow for the formation of the E-I complex. The inhibition constants were obtained by non-linear least-squares methods using PRISM 3 and the Cheng–Prusoff equation, as reported earlier,[29–32] and represent the mean from at least three different determinations.
Experimental for hCA IX: as §1
Experimental for hCA XII: as §1

Usually Ki stands for a dissociation constant, usually derived from enzyme kinetics or from competition with a known ligand. As usually defined, the melting point is the temperature, or range, at which the solid turns liquid. As for `Cc1ccc(C(=O)Nc2cccc(C(=O)NC(=S)Nc3ccc(C(=O)O)cc3)c2)cc1` [Compound 8c, 4-(3-(3-(4-Methylbenzamido)benzoyl)thioureido)benzoic acid], the melting point lay in the range of 254 to 256 °C. At hCA XII, this compound came in with a Ki of 145 nM. Further, the affinity at hCA II, expressed as Ki, was 295 nM. Further, the Ki at hCA I stood at 9.17 µM. The compound also had a Ki at hCA IX of 264 nM.

As to `CC(C)C(=O)Nc1ccc(C(=O)NC(=S)Nc2ccc(S(N)(=O)=O)cc2)cc1` [Compound 7e, 4-Isobutyramido-N-((4-sulfamoylphenyl)carbamothioyl)benzamide], the melting point is 248 to 250 °C. At hCA XII, the Ki came to 94 nM. The same compound gave a Ki at hCA II of 39.6 nM. The compound also had a Ki at hCA I of 0.333 µM. On hCA IX, the Ki stood at 203 nM.

`CC(=O)Nc1cccc(C(=O)NC(=S)Nc2ccc(C(=O)O)cc2)c1` [Compound 8a, 4-(3-(3-Acetamidobenzoyl)thioureido)benzoic acid] yielded a melting point of 247 to 249 °C. For the same compound, at hCA XII, the Ki was determined as 17 nM, the “Selectivity index I/XII” value is on record as 481 and the “Selectivity index II/XII” value was 318. Besides, the affinity on hCA II, expressed as Ki, was 5400 nM. This compound displayed a Ki on hCA I of 8.18 µM. This compound had a Ki at hCA IX of 209 nM.

Compound `CCOC(=O)c1ccc(NC(=S)NC(=O)c2cccc(NC(C)=O)c2)cc1` [Compound 9a, Ethyl 4–(3-(3-acetamidobenzoyl)thioureido)benzoate] gave a melting point of 242 to 244 °C. On hCA XII, this compound registered a Ki of over 100000 nM. For the same compound, the Ki at hCA II was over 100000 nM. At hCA I, this compound showed an inhibition constant Ki of 9.04 µM. Also, the Ki at hCA IX turned out to be 2130 nM.

In general, IC50 refers to the concentration that gives 50% inhibition. As for `NS(=O)(=O)c1ccc(NC(=S)NC(=O)c2ccc(Cl)cc2Cl)cc1` [Compound A], the inhibitory constant (Ki) at CA IX (compound A, printed in Figure 2, read-out: Ki hCA IX) is 0.12 nM. In addition, the IC50 in the data set on CA IX (reported for compound A) is 0.12 nM.

As for `CCOC(=O)c1ccc(NC(=S)NC(=O)c2cccc(NC(=O)c3ccc(C)cc3)c2)cc1` [Compound 9c, Ethyl 4–(3-(3–(4-methylbenzamido)benzoyl)thioureido)benzoate], the melting point is 236 to 238 °C. On hCA XII, this compound registered a Ki of over 100000 nM. This compound came in with a Ki on hCA II of 546 nM. The Ki on hCA I was over 100 µM. This compound displayed a Ki on hCA IX of 251 nM.

For the compound `CC(=O)Nc1ccc(C(=O)NC(=S)Nc2ccc(S(N)(=O)=O)cc2)cc1` [Compound 7d, 4-Acetamido-N-((4-sulfamoylphenyl)carbamothioyl)benzamide], the melting point lay within 218 to 220 °C. The same compound showed a Ki at hCA XII of 97 nM. This compound returned a Ki on hCA II of 701 nM. This compound came in with an inhibition constant (Ki) on hCA I of 5.45 µM. Also, the affinity on hCA IX, expressed as Ki, was 168 nM.

`CCOC(=O)c1ccc(NC(=S)NC(=O)c2ccc(NC(=O)C(C)C)cc2)cc1` [Compound 9e, Ethyl 4–(3-(4-isobutyramidobenzoyl)thioureido)benzoate] yielded a melting point of 245 to 247 °C. Moreover, affinity at hCA XII was put at a Ki of 202 nM. Also, the Ki at hCA II is 73.2 nM. Also, at hCA I, the Ki is 8.5 µM. On hCA IX, affinity was put at a Ki of 29 nM, the “Selectivity index I/IX” value is 293 and the “Selectivity index II/IX” value is given as 2.5.

`Cc1ccc(C(=O)Nc2cccc(C(=O)NC(=S)Nc3ccc(S(N)(=O)=O)cc3)c2)cc1` [Compound 7c, 3-(4-Methylbenzamido)-N-((4-sulfamoylphenyl)carbamothioyl)benzamide] yielded a melting point of 210 to 212 °C. The compound also had a Ki at hCA XII of over 100000 nM. On hCA II, the inhibition constant Ki amounted to 56.6 nM. This compound also showed a Ki on hCA I of 0.033 µM. Also, at hCA IX, the affinity, expressed as Ki, was 31.2 nM; the “Selectivity index I/IX” value is listed as 1.0; the “Selectivity index II/IX” value is reported as 2.0.

The compound `Cc1ccc(C(=O)Nc2ccc(C(=O)NC(=S)Nc3ccc(S(N)(=O)=O)cc3)cc2)cc1` [Compound 7f, 4-Methyl-N-(4(((4sulfamoylphenyl)carbamothioyl)carbamoyl)phenyl) benzamide] came in with a melting point of 228 to 230 °C. This compound showed a Ki at hCA XII of 106 nM. For the same compound, the affinity on hCA II, expressed as Ki, was 39 nM. For the same compound, on hCA I, the Ki was determined as 0.043 µM. On hCA IX, the Ki worked out at 30 nM, the “Selectivity index I/IX” value was 1.4 and the “Selectivity index II/IX” value is given as 1.3.

Turning to `Cc1ccc(C(=O)Nc2ccc(C(=O)NC(=S)Nc3ccc(C(=O)O)cc3)cc2)cc1` [Compound 8f, 4-(3-(4–(4-Methylbenzamido)benzoyl)thioureido)benzoic acid], the melting point lay within 254 to 256 °C. Further, on hCA XII, the Ki worked out at 11 nM, the “Selectivity index I/XII” value is listed as 38 and the “Selectivity index II/XII” value was over 9091. The same compound showed a Ki at hCA II of over 100000 nM. Besides, the affinity at hCA I, expressed as Ki, was 0.422 µM. Besides, on hCA IX, the affinity, expressed as Ki, was 176 nM.

Consider `CC(=O)Nc1ccc(C(=O)NC(=S)Nc2ccc(C(=O)O)cc2)cc1` [Compound 8d, 4-(3-(4-Acetamidobenzoyl)thioureido)benzoic acid], for which the melting point was in the range of 245 to 247 °C. The Ki at hCA XII was over 100000 nM. The compound further had a Ki on hCA II of 855 nM. On hCA I, the Ki was over 100 µM. For the same compound, the Ki on hCA IX is 971 nM.

On to `CC(C)C(=O)Nc1cccc(C(=O)NC(=S)Nc2ccc(S(N)(=O)=O)cc2)c1` [Compound 7b, 3-Isobutyramido-N-((4-sulfamoylphenyl)carbamothioyl)benzamide], for which the melting point lay in the range of 240 to 242 °C. This compound displayed a Ki at hCA XII of over 100000 nM. Moreover, on hCA II, the affinity corresponds to a Ki of 2.1 nM. Moreover, the affinity on hCA I corresponds to a Ki of 0.0563 µM. The compound also showed a Ki at hCA IX of 149 nM.

`CC(C)C(=O)Nc1ccc(C(=O)NC(=S)Nc2ccc(C(=O)O)cc2)cc1` [Compound 8e, 4-(3-(4-Isobutyramidobenzoyl)thioureido)benzoic acid] returned a melting point of 240 to 242 °C. For the same compound, the Ki at hCA XII came out at 102 nM. The compound also returned a Ki on hCA II of 430 nM. For the same compound, the Ki on hCA I is over 100 µM. Also, on hCA IX, the Ki came out at 898 nM and the “Selectivity index I/IX” value is 293.

Compound `CC(=O)Nc1cccc(C(=O)NC(=S)Nc2ccc(S(N)(=O)=O)cc2)c1` [Compound 7a, 3-Acetamido-N-((4-sulfamoylphenyl)carbamothioyl)benzamide] came in with a melting point of 256 to 258 °C. The compound further gave a Ki at hCA XII of over 100000 nM. On hCA II, this compound came in with a Ki of 2.5 nM. The Ki at hCA I came out at 0.0582 µM. In addition, on hCA IX, the Ki came to 238 nM.

As to `CCOC(=O)c1ccc(NC(=S)NC(=O)c2cccc(NC(=O)C(C)C)c2)cc1` [Compound 9b, Ethyl 4–(3-(3-isobutyramidobenzoyl)thioureido)benzoate], the melting point is 245 to 247 °C. Further, on hCA XII, the Ki was over 100000 nM. This compound also displayed a Ki on hCA II of 57.1 nM. Also, the Ki on hCA I turned out to be 8.66 µM. The compound further came in with a Ki on hCA IX of 300 nM.

`CCOC(=O)c1ccc(NC(=S)NC(=O)c2ccc(NC(=O)c3ccc(C)cc3)cc2)cc1` [Compound 9f, Ethyl 4–(3-(4–(4-methylbenzamido)benzoyl)thioureido)benzoate] gave a melting point of 237 to 239 °C. On hCA XII, this compound showed a Ki of 155 nM. The same compound displayed a Ki at hCA II of over 100000 nM. Moreover, the Ki at hCA I is over 100 µM. This compound showed a Ki at hCA IX of 1580 nM.

As for `CCOC(=O)c1ccc(NC(=S)NC(=O)c2ccc(NC(C)=O)cc2)cc1` [Compound 9d, Ethyl 4–(3-(4-acetamidobenzoyl)thioureido)benzoate], the melting point was in the range of 237 to 239 °C. At hCA XII, the Ki is over 100000 nM. Also, the Ki at hCA II was over 100000 nM. This compound yielded a Ki at hCA I of over 100 µM. At hCA IX, this compound came in with a Ki of 1630 nM.

`CC(C)C(=O)Nc1cccc(C(=O)NC(=S)Nc2ccc(C(=O)O)cc2)c1` [Compound 8b, 4-(3-(3-Isobutyramidobenzoyl)thioureido)benzoic acid]: the melting point lay in the range of 240 to 242 °C. The Ki on hCA XII turned out to be 142 nM. Besides, the Ki on hCA II was over 100000 nM. The same compound came in with a Ki on hCA I of over 100 µM. Besides, at hCA IX, the affinity corresponds to a Ki of 208 nM.

The record behind these values is publication PMC9621292, “Design and synthesis of some new benzoylthioureido benzenesulfonamide derivatives and their analogues as carbonic anhydrase inhibitors” (Journal of Enzyme Inhibition and Medicinal Chemistry, 2022).
